Patent US20100267712A1, “ISOINDOLINE COMPOUNDS FOR THE TREATMENT OF SPINAL MUSCULAR ATROPHY AND OTHER USES” (The United States of America, as represented by the …, priority 2007, published 2010)
pEC50: −log10 of the molar value.

Tests used:
[1] = test system: translational stop codon read-through, human SMN2 open reading frame-luciferase; assay: Translational read-through luciferase reporter assay (luciferase preceded by the open reading frame of the human SMN2 gene); assay type: cell-based
Text: This assay was similar in design to that described in WO 01/44516 A2. This was a cell-based luciferase reporter assay designed to detect translational read-through via insertion of a translational stop codon within the coding sequence that includes luciferase. In the presence of compounds that promote read-through of translational stop codons, active luciferase was produced and detected via chemiluminescence. Compounds of the invention typically were active in three versions of this assay: luciferase reporter containing a UGA stop codon, luciferase reporter containing a UAG stop codon, which is the first stop codon downstream of the improper splice junction between exons 6 and 8 in the human SMN2 transcript, and luciferase preceded by the open reading frame of the human SMN2 gene.

[2] = test system: SMN2-linked luciferase-reporter gene construct; assay: SMN Splice Reporter Assay (SMN2-linked luciferase reporter); assay type: cell-based; details: for pEC50: cervical carcinoma cell lines, SMN2 splice luciferase reporter; for Fold Increase: fold-increase of luciferase over baseline reading of transformed cells without any test compound
How it was run: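 Cervical carcinoma cells carrying an SMN2-luciferase splicing reporter, in-frame only with exon 7 inclusion, were treated with compound. Luciferase activity reported as fold increase over untreated transformed cells, with EC50 derived.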

O=C1c2ccccc2CN1c1ccc2c(c1)OCCO2 [Example 46, 2-(2,3-dihydrobenzo[b][1,4]dioxin-6-yl)isoindolin-1-one]
melting point: 170 to 176 °C

Nc1ccc2c(c1)C(=O)N(c1ccc3ccsc3c1)C2 [Example 29, 6-amino-2-(benzo[b]thiophen-6-yl)isoindolin-1-one]
melting point: 233 to 236 °C

CC(=O)Nc1cccc2c1CN(c1ccc3ccn(C)c3c1)C2=O [Example 21, N-(2-(1-methyl-1H-indol-6-yl)-1-oxoisoindolin-4-yl)acetamide]
melting point: 180 to 184 °C

COc1ccc2c(c1)C(=O)N(c1ccc3sc(C)cc3c1)C2 [Example 122685]
pEC50 [1]: 6.18
maximal fold induction [1]: 1.87
pEC50 [2]: 7.62
Fold Increase [2]: 1.251

Cc1cc2cc(N3Cc4ccc(Br)cc4C3=O)ccc2n1C [Example 122818]
pEC50 [1]: 4.89
maximal fold induction [1]: 1.81
pEC50 [2]: 6.68
Fold Increase [2]: 1.551

COc1ccc2c(c1)C(=O)N(c1ccc3c(c1)OC(C)(C)O3)C2 [Example 116566]
pEC50 [1]: 5.38
maximal fold induction [1]: 1.36
pEC50 [2]: 8.05
Fold Increase [2]: 1.308

COc1ccc2c(c1)C(=O)N(c1ccc3c(c1)OCCO3)C2 [Example 116239]
pEC50 [1]: 6.38
maximal fold induction [1]: 2.02
pEC50 [2]: 7.70
Fold Increase [2]: 1.228

COc1ccc2c(c1)C(=O)N(c1ccc3c(ccn3C(C)C)c1)C2 [Example 119518]
pEC50 [1]: 5.55
maximal fold induction [1]: 1.2
pEC50 [2]: 7.15
Fold Increase [2]: 1.617

COc1ccc2c(c1)C(=O)N(c1ccc3[nH]ncc3c1)C2 [Example 120601]
pEC50 [1]: 4.81
maximal fold induction [1]: 1.65
Fold Increase [2]: 1.059

Cn1ccc2cc(N3Cc4ccc(Cl)cc4C3=O)ccc21 [Example 120599]
pEC50 [1]: 5.72
maximal fold induction [1]: 1.88
pEC50 [2]: 7.21
Fold Increase [2]: 1.407

COCCn1ccc2cc(N3Cc4ccc(OC)cc4C3=O)ccc21 [Example 119659]
pEC50 [1]: 6.12
maximal fold induction [1]: 1.38
pEC50 [2]: 7.17
Fold Increase [2]: 1.405

COc1ccc2c(c1)C(=O)N(c1ccc3nccnc3c1)C2 [Example 120791]
pEC50 [1]: 6.19
maximal fold induction [1]: 1.91
pEC50 [2]: 7.15
Fold Increase [2]: 1.372

COc1ccc2c(c1)C(=O)N(c1ccc3ccoc3c1)C2 [Example 118740]
pEC50 [1]: 6.66
maximal fold induction [1]: 1.67
pEC50 [2]: 7.66
Fold Increase [2]: 1.388

Cn1ccc2cc(N3Cc4ccc(Br)cc4C3=O)ccc21 [Example 119521]
pEC50 [1]: 5.53
maximal fold induction [1]: 1.56
pEC50 [2]: 7.02
Fold Increase [2]: 1.491

CC(C)n1ccc2cc(N3Cc4ccc(Cl)cc4C3=O)ccc21 [Example 125094]
maximal fold induction [1]: 1.16
pEC50 [2]: 8.05
Fold Increase [2]: 1.256

COc1ccc2c(c1)C(=O)N(c1ccc3nc(C)ncc3c1)C2 [Example 121924]
pEC50 [1]: 5.58
maximal fold induction [1]: 1.66
pEC50 [2]: 5.87
Fold Increase [2]: 1.489

COc1ccc2c(c1)C(=O)N(c1ccc3c(cnn3C)c1)C2 [Example 120600]
pEC50 [1]: 5.31
maximal fold induction [1]: 1.83
pEC50 [2]: 7.23
Fold Increase [2]: 1.312

Cn1ccc2cc(N3Cc4cc5c(cc4C3=O)OCCO5)ccc21 [Example 118275]
pEC50 [1]: 5.68
maximal fold induction [1]: 1.28
pEC50 [2]: 7.85
Fold Increase [2]: 1.484

COCn1ccc2cc(N3Cc4ccc(OC)cc4C3=O)ccc21 [Example 119658]
pEC50 [1]: 5.22
maximal fold induction [1]: 1.19
pEC50 [2]: 7.23
Fold Increase [2]: 1.42

COc1ccc2c(c1)C(=O)N(c1ccc3nccn3c1)C2 [Example 120955]
pEC50 [1]: 4.85
maximal fold induction [1]: 1.66
pEC50 [2]: 5.80
Fold Increase [2]: 1.265

COc1cc2c(cc1OC)C(=O)N(c1ccc3ccn(C)c3c1)C2 [Example 120594]
pEC50 [1]: 4.71
maximal fold induction [1]: 2.08
pEC50 [2]: 5.69
Fold Increase [2]: 1.561

COc1ccc2c(c1)C(=O)N(c1ccc3c(c1)N(C)CCO3)C2 [Example 119867]
pEC50 [1]: 6.17
maximal fold induction [1]: 2.04
pEC50 [2]: 6.93
Fold Increase [2]: 1.495

COc1ccc2c(c1)C(=O)N(c1ccc3cnn(C)c3c1)C2 [Example 120604]
pEC50 [1]: 5.10
maximal fold induction [1]: 1.65
pEC50 [2]: 6.38
Fold Increase [2]: 1.441

CC(C)n1ccc2cc(N3Cc4ccc(Br)cc4C3=O)ccc21 [Example 125270]
maximal fold induction [1]: 1.19
pEC50 [2]: 7.80
Fold Increase [2]: 1.446

CC(C)n1ccc2cc(N3Cc4ccc(OC(F)F)cc4C3=O)ccc21 [Example 121259]
pEC50 [1]: 7.49
maximal fold induction [1]: 1.03
Fold Increase [2]: 1.166

Cc1cc2cc(N3Cc4ccc(OC(C)C)cc4C3=O)ccc2n1C [Example 123934]
pEC50 [1]: 4.01
maximal fold induction [1]: 1.3
pEC50 [2]: 7.20
Fold Increase [2]: 1.554

Cc1cc2cc(N3Cc4ccc(N5CCCC5)cc4C3=O)ccc2n1C [Example 123330]
maximal fold induction [1]: 1.4
Fold Increase [2]: 1.113

CC(=O)Nc1ccc2c(c1)C(=O)N(c1ccc3c(ccn3C)c1)C2 [Example 122435]
pEC50 [1]: 5.89
maximal fold induction [1]: 1.98
pEC50 [2]: 6.84
Fold Increase [2]: 1.412

O=C1c2ccccc2CN1c1ccc2c(c1)OCCO2 [Example 116069]
pEC50 [1]: 5.61
maximal fold induction [1]: 1.97
pEC50 [2]: 7.02
Fold Increase [2]: 1.348

COC(=O)C1CCc2cc(N3Cc4ccccc4C3=O)ccc21 (centres unmarked) [Example 113487]
pEC50 [2]: 6.84
Fold Increase [2]: 1.259

CN1CCCc2cc(N3Cc4ccc(OC(F)F)cc4C3=O)ccc21 [Example 122319]
pEC50 [2]: 6.69
Fold Increase [2]: 1.97

Cc1cc2cc(N3Cc4ccc(OC(F)F)cc4C3=O)ccc2n1C [Example 123204]
pEC50 [2]: 6.43
Fold Increase [2]: 1.361

COc1ccc2c(c1)C(=O)N(c1ccc3[nH]ccc3c1)C2 [Example 119657]
Fold Increase [2]: 1.21

CCOC1CS(=O)(=O)c2cc(N3Cc4ccc(OC)cc4C3=O)ccc21 (centres unmarked) [Example 124031]
Fold Increase [2]: 1.106

Cc1cccc2c1C(=O)N(c1ccc3ccn(C)c3c1)C2 [Example 120279]
pEC50 [2]: 6.62
Fold Increase [2]: 1.784

Cc1cccc2c1C(=O)N(c1ccc3c(ccn3C)c1)C2 [Example 120278]
pEC50 [2]: 6.79
Fold Increase [2]: 1.502

COc1cccc2c1CN(c1ccc3ccn(C)c3c1)C2=O [Example 120123]
pEC50 [2]: 5.96
Fold Increase [2]: 1.966

COc1ccc2c(c1)C(=O)N(c1ccc3ccn(CCNC(C)=O)c3c1)C2 [Example 121083]
Fold Increase [2]: 1.083

CCc1ccc2c(c1)C(=O)N(c1ccc3sccc3c1)C2 [Example 122684]
pEC50 [2]: 7.24
Fold Increase [2]: 1.665

COc1ccc2c(c1)C(=O)N(c1ccc3c(c1)cc(CN(C)C)n3C)C2 [Example 124772]
Fold Increase [2]: 1.148

COc1ccc2c(c1)C(=O)N(c1ccc3ccn(C)c3c1)C2 [Example 118561]
pEC50 [2]: 6.84
Fold Increase [2]: 1.74

CCc1ccc2c(c1)C(=O)N(c1ccc3c(ccn3C)c1)C2 [Example 121793]
pEC50 [2]: 7.07
Fold Increase [2]: 1.529

CCCOc1ccc2c(c1)C(=O)N(c1ccc3c(c1)cc(C)n3C)C2 [Example 123715]
pEC50 [2]: 6.84
Fold Increase [2]: 1.216

COc1ccc2c(c1)C(=O)N(c1cc3ccn(C)c3cn1)C2 [Example 121792]
pEC50 [2]: 7.00
Fold Increase [2]: 1.384

CCOc1ccc2c(c1)C(=O)N(c1ccc3ccn(C)c3c1)C2 [Example 124167]
pEC50 [2]: 7.16
Fold Increase [2]: 1.759

CCOc1ccc2c(c1)C(=O)N(c1ccc3sccc3c1)C2 [Example 122554]
pEC50 [2]: 7.57
Fold Increase [2]: 1.475

COc1ccc2c(c1)C(=O)N(c1ccc3c(N(C)C)ccnc3c1)C2 [Example 124037]
pEC50 [2]: 5.22
Fold Increase [2]: 1.377

COc1ccc2c(c1)C(=O)N(c1ccc3c(Cl)ccnc3c1)C2 [Example 123711]
pEC50 [2]: 5.80
Fold Increase [2]: 1.262

COc1cccc2c1CN(c1ccc3ccsc3c1)C2=O [Example 121513]
pEC50 [2]: 6.13
Fold Increase [2]: 1.612

CCCCc1ccc2c(c1)C(=O)N(c1ccc3c(ccn3C)c1)C2 [Example 121928]
pEC50 [2]: 6.83
Fold Increase [2]: 1.384

COc1ccc2c(c1)C(=O)N(c1cnc3[nH]ccc3c1)C2 [Example 121078]
Fold Increase [2]: 1.246

CCCc1ccc2c(c1)C(=O)N(c1ccc3ccn(C)c3c1)C2 [Example 124428]
pEC50 [2]: 6.82
Fold Increase [2]: 1.692

COc1cccc2c1C(=O)N(c1ccc3ccn(C)c3c1)C2 [Example 120124]
Fold Increase [2]: 1.17

Cn1ccc2ccc(N3Cc4ccc(-c5ccccc5)cc4C3=O)cc21 [Example 120949]
pEC50 [2]: 6.43
Fold Increase [2]: 1.816

COc1ccc2c(c1)C(=O)N(c1ccc3nc(N(C)C)ccc3c1)C2 [Example 123332]
pEC50 [2]: 6.68
Fold Increase [2]: 1.272

Cn1ccc2ccc(N3Cc4ccc(OC5CCCC5)cc4C3=O)cc21 [Example 124860]
pEC50 [2]: 6.87
Fold Increase [2]: 1.582
